The subject of experiment [1] is rats. The conditions noted are these: cited from earlier work; for antidepressant effect in prior studies: FLX 1 mg/kg, MTZ 1 mg/kg; for effect on the FST in prior studies: FLX 10 mg/kg, MTZ 20 mg/kg, similar test conditions.
For experiment [2], the system named is rats. The experiment can be described thus: Forced swimming test (FST). It counts as in vivo, rat (male Wistar). The conditions noted are these: for climbing in FST / immobility in FST / swimming in FST: 16 days.
Description: (§1) The experiments were carried out with male Wistar rats with a body weight of 200-386 g. Rats were kept in a cycle of 12 hours of light (8:00 a 20:00) and 12 hours of darkness with free access to water and food except during the tests. The rats were divided in four groups, housed in individual polyethylene cages of with three or four rats each (55×38×30 cm) and fed with standard diet for the controls (C) or diet supplemented with omega-3 fatty acids (ω3). The animals were used only once in each test. All tests were performed in agreement with the Guidelines for the Care and Use of Laboratory Animals provided by National Institutes of Health of United States of America.
The Fluoxetine Hydrochloride (FLX) and mirtazapine (MTZ) were administered intra-peritoneally (IP) in a volume equivalent to 1 cc/kg and were freshly prepared each morning. The FLX was dissolved in distilled water and MZT was solubilized in isotonic saline (0.9% NaCl) plus three or four drops of glacial acetic acid to dissolve this solution. […] All control rats were given injections of saline.
In all cases antidepressant drugs or the saline solution were given once a day for 16 days, the final injection was given 24 hours before the test session (FIGS. 6 and 18).
The omega-3 fatty acids were given as diet supplement in the food enriched with salmon oil for 16 days. Each 1000 mg of highly concentrated salmon oil contains about 30% of omega-3, from which 17% is EPA and 13% is DHA; therefore there were 40 mg of omega-3 fatty acids per gram of enriched food. Rats of the ω3 group received a dose of about 0.72 g/kg/day of omega-3 fatty acids.
The swimming sessions were carried out placing the rats in Plexiglas cylinders (46 cm of height and 20 cm of diameter) which had been previously filled with water (23-25° C.) to 30 cm from the bottom. All swimming sessions were performed between 12:00 and 18:00 hours.
Two sessions were performed: an initial pre-test for 15 minutes followed by a 5-minute test, after 16 days. The drugs were given between both sessions.
Rats were studied at 5-second intervals during the session of forced swimming session. At each interval of 5 seconds, the predominant behavior was assigned to one of the following categories: (1) immobility: flotation in water without fighting, only doing the necessary movements to keep the head out of the water; (2) swimming, making the movements of active swimming, plus the ones necessary to keep simply the head out of the water (i.e., moving around the cylinder); and (3) climbing, making active movements with fore hints out of the water, usually against walls. The scoring for each behavior was expressed as the total of records per session of 5 minutes.
Experiment [3] is described as follows: Body weight gain during chronic treatment. It is filed as in vivo, rat (male Wistar).
Description: Tests were performed to analyze the body weight gain during chronic treatments with antidepressants and/or omega-3 fatty acids.
as §1
The test system of experiment [4] is rats. The experiment can be described thus: Open field test (locomotor activity). It counts as in vivo, rat (male Wistar). As to the method: These studies were performed exactly the same way as the studies of FST had been carried. All rats that experimented the first day of FST (pre-test), received the different treatments during 16 days. On day 17 they were placed in the cage of open field (60×60×60 cm) with the floor divided in squares (15×15 cm). The tests were performed between 14:00 and 17:00 hours, illuminated with an electric bulb of 75 W and placed 75 cm above the floor of the cage, in a quiet room. The locomotion was measured by the number of squares they enter with the four legs (counts), over a period of 5 minutes. After withdrawing the animal, the open field was carefully cleaned with a damp wipe.

Setting [5] is: fluoxetine 10 mg/kg ip and/or omega-3 0.72 g/kg.
The mark [6] stands for this setting: mirtazapine 20 mg/kg ip and/or omega-3 0.72 g/kg.

Entries after “also recorded” stand apart in the source; their conditions may differ. Where a name gives a salt, the structure may show the parent alone.

For `CNCCC(Oc1ccc(C(F)(F)F)cc1)c1ccccc1` (stereo not shown) [fluoxetine, Fluoxetine Hydrochloride], in the experiment with rats [1], the “antidepressant effect in prior studies” value is given as “not showing an antidepressant effect” and the “effect on the FST in prior studies” value is reported as “produce a more robust effect on the FST”. Further, in the experiment with rats [2] (fluoxetine 1 mg/kg ip alone, two-factor ANOVA), the “effect of treatment on behaviors in FST” value is reported as “no effect of treatment with FLX”. Besides, in the experiment on rats [2] (setting [5]), the “climbing in FST” value was “without modifying the behavioral levels of climbing”, the “immobility in FST” value was “reduces immobility” and the “swimming in FST” value is “increases swimming”. Moreover, the “effect of treatment on the FST” value with rats [2] (fluoxetine sub-optimal doses lower than 1 mg/kg (0.1 and 0.5 mg/kg) alone) is on record as “did not have any effect on the FST”. Besides, the body weight result in experiment [3] (fluoxetine 10 mg/kg and/or omega-3 0.72 g/kg, vs control group) was “Body weight was significantly lower”. Moreover, the body weight gain result in experiment [3] (fluoxetine sub-optimal dose 1 mg/kg) is “Body weight gain was reduced although in a lesser extend”. For the same compound, the “spontaneous locomotor activity in open field” value with rats [4] (fluoxetine 1 mg/kg and/or omega-3 0.72 g/kg) is reported as “None of these treatments with antidepressant effects in the FST affected the levels of activity”. In addition, in the experiment on rats [4] (fluoxetine 10 mg/kg and/or omega-3 0.72 g/kg), the “spontaneous locomotor activity in open field test” value is recorded as “None of these treatments with antidepressant effects in the FST affected the activity levels”.
As to `CN1CCN2c3ncccc3Cc3ccccc3C2C1` (stereo not shown) [mirtazapine], in the experiment with rats [1], the “antidepressant effect in prior studies” value was “not showing an antidepressant effect” and the “effect on the FST in prior studies” value is “produce a more robust effect on the FST”. Moreover, in the experiment with rats [2] (setting [6]), the “climbing in FST” value is on record as “increase”, the “immobility in FST” value is reported as “significantly reduced the immobility” and the “swimming in FST” value is recorded as “corresponding increase in the swimming”. Moreover, in the experiment with rats [2] (mirtazapine sub-optimal dose 1 mg/kg ip and/or omega-3 0.72 g/kg/day, vs control), the “time of immobility in FST” value is reported as “did not significantly change the time of immobility”. For the same compound, the body weight gain result in experiment [3] (mirtazapine 20 mg/kg and/or omega-3 0.72 g/kg, chronic) is reported as “significantly reduced the body weight gain; also recorded: significant decrease in body weight”. Besides, the body weight gain result in experiment [3] (mirtazapine sub-optimal dose 1 mg/kg and/or omega-3 0.72 g/kg, 1 mg/kg) is “does not interfere with the weight gain”. For the same compound, the body weight gain result in experiment [3] (mirtazapine sub-optimal dose 1 mg/kg and/or omega-3 0.72 g/kg, listed as Mirtazapine, 1 mg/kg) is “did not produce any effect”. In addition, the “spontaneous locomotor activity in open field” value in the experiment with rats [4] (mirtazapine 1 mg/kg and/or omega-3 0.72 g/kg/day) is on record as “did not interfere with the locomotor activity”. In addition, the “spontaneous locomotor activity in open field test” value with rats [4] (mirtazapine 20 mg/kg and/or omega-3 0.72 g/kg) is “did not interfere with the responses of locomotor activity”.

Source of the values: patent publication US20110003796A1, “METHOD FOR THE TREATMENT OF PSYCHIC DISORDERS” (Consejo Nacional de Investigaciones Cientificas y Tecnicas …, priority 2009, published 2011).
